Assay results from patent US11026945B2, “Protein kinase RNA-like endoplasmic reticulum kinase (PERK) inhibitors for prevention and/or treatment of lung injury and/or inflammation” (THE TRUSTEES OF THE UNIVERSITY OF PENNSYLVANIA, priority 2016, dated 2021).

Columns and labels:
AEC-I monolayers [1] = test: Stretch-induced cell death, ethidium homodimer staining; assay type: cell-based, rat; settings: stretched monolayers, 1 μM PI pretreatment
From the text: To assess the effect of ISR inhibition on stretch-induced cell death, dead to live cell ratio was quantified with triple Ethidium homodimer (dead cells)-Calcinein (live cells) and nuclear (DAPI) stain (Thermo Fisher Scientific). Fluorescent light emission from cells was captured with fluorescent microscopy and quantified in the same fashion as described in the “Mechanical stretch activates ISR and cell death in AEC-I” section. N=30 rats were used to obtain data from N=5 biological replicates/condition for each treatment group. Data was expressed as the number of dead cells per total cells as depicted in FIG. 3G. […]
To measure permeability, the silastic membranes were coated with biotinylated fibronectin and cells were cultured on the apical surface. […] Light emission at 488 nm was measured for monolayers using fluorescent microscopy (Nikon TE300, Melville, N.Y.). […] The emitted fluorescence is proportional to the monolayer damage caused by stretch and is detectable by fluorescent microscopy. […] The maximum pixel intensity in the background of unstretched-untreated monolayers was measured and used as a threshold to exclude unstained regions. The percentage of each image area above the threshold intensity was determined and then divided by the value for the unstretched control group to calculate the normalized area percentage (nArea) of each image. […] Data were expressed as ±SEM. […]

AEC-I monolayers [2] = test: Monolayer permeability, FITC-labeled streptavidin binding to biotin; assay type: cell-based, rat; settings: stretched monolayers (25%, 6 hrs), 1 μM PI pretreatment 18 hours
From the text: To obtain monolayer rat type-II alveolar epithelial cells (AEC-II), cells were isolated from Sprague-Dawley rats (250-300 g, N=30 purchased from Charles River Laboratories, Wilmington, Mass.) described by Tschumperlin D J, Margulies SS. Equibiaxial deformation-induced injury of alveolar epithelial cells in vitro. Am J Physiol. 1998; 275(6 Pt 1):L1173-83. Epub 1998/12/09 (PubMed PMID: 9843855), with modifications. Briefly, animals were killed and the lungs were harvested. The lung tissue was digested with elastase at 37° C. and distal airways were isolated. Following, cells were placed on rat IgG coated containing no serum for 90 minutes to eliminate contaminating leukocytes and parenchymal cells. This isolation method yielded approximately 95% pure alveolar epithelial cell population. 1.3 million cells were plated on 1 cm diameter fibronectin-coated custom made silastic membranes. In permeability studies, biotin were mixed with fibronectin and membranes were pretreated with oxygen plasma coating to ensure homogenous distribution of the fibronectin. Cells were cultured with 10% fetal bovine serum (FBS)-containing Minimal Essential Medium (MEM) containing low dose antibiotics for 3 days. 32 to 40 monolayers were per rat. On the 3rd day, matured monolayers were randomized to be exposed to one of the treatments for 24 hours (N=3 monolayers/treatment): • A. RNAiMax transfection reagent treatment using serum free media (Opti-MEM, Thermo Fisher Scientific, Waltham, Mass.). This is a negative control for siRNA experiments where serum free media is used for improved transfection efficiency; • B. non-targeting siRNA treatment ([…], Dharmacon) serves a negative control for transfection; • C. […]
The dose of siRNA and PI treatment was selected based on dose-response curves above (FIG. 2A-FIG. 2E). […] All membranes were treated with FITC-labeled streptavidin (Thermo Fisher Scientific) at the end of the experiment and light emission was detected at 488 nm with fluorescent microscopy (Nikon TE300, Melville, N.Y.). […]

Cn1cc(-c2ccc3c(c2)CCN3C(=O)Cc2cccc(C(F)(F)F)c2)c2c(N)ncnc21 [PI, 1-[5-(4-Amino-7-methyl-7H-pyrrolo[2,3-d]pyrimidin-5-yl)indolin-1-yl]-2-(3-trifluoromethylphenyl)ethanone]
stretch-induced cell death (AEC-I monolayers [1]): decreased | monolayer permeability (AEC-I monolayers [2]): significantly reduced
